# Source: article PMC8219695 (Nature Communications, 2021)
# Values joined by “and” are separate entries in the source; they are usually repeats but may differ in a detail not shown here. Identical values can stand only once.
# Tests used:
# hDOR = hDOR (Homo sapiens, UniProt P41143); assay: CAMYEL BRET cAMP agonist assay at hDOR; type: cell-based; details: for Agonist activity of 7OH analogs at hDOR: single replicate values, Supplementary Figure 7A
# mMOR [1] = molecular target: T1, mMOR (Mus musculus, UniProt P42866); assay: [125I]BNtxA radioligand competition binding, mouse MOR; details: mean ± SEM, n = 3; [125I]BNtxA; read-out: Ki ± SEM mMOR
# T1 construct: signal peptide (heterologous, not specified) (N); expressed in transfected cells; pcDNA3.1(+) construct made in house
# hMOR [2] = molecular target: T2, hMOR (Homo sapiens, UniProt P35372); assay: cell-based; details: read-out: Emax hMOR
# T2 construct: expressed in transfected cells; plasmid a gift from Dr. Nevin Lambert
# rKOR = molecular target: T3, rKOR (Rattus norvegicus, UniProt P34975); assay: CAMYEL BRET cAMP agonist assay at rKOR; type: cell-based; details: individual replicates, Supplementary Figure 8B source data
# T3 construct: expressed in transfected cells
# mDOR [3] = molecular target: T4, mDOR (Mus musculus, UniProt P32300); assay: CAMYEL BRET cAMP agonist assay at mDOR; type: cell-based; details: for Agonist activity of 7OH analogs at mDOR: single replicate values, Supplementary Figure 7B
# T4 construct: expressed in transfected cells
# hMOR [4] = molecular target: T2, hMOR; assay: CAMYEL BRET cAMP agonist assay at hMOR; type: cell-based; details: for cAMP %: hMOR, single replicates, source data Fig 6c, listed as C11-F-7OH (22)
# mKOR = molecular target: T5, mKOR (Mus musculus, UniProt P33534); assay: [125I]BNtxA radioligand competition binding, mouse KOR; details: mean ± SEM, n = 3; [125I]BNtxA; read-out: Ki ± SEM mKOR
# T5 construct: expressed in transfected cells; membranes
# mMOR [5] = molecular target: T1, mMOR; assay: CAMYEL BRET antagonism assay at mMOR (inhibition of DAMGO); type: cell-based; details: for Antagonist activity at mMOR, raw signal (single replicate values): source data of Fig 8a and Table 5, listed as C11-F-7OH (22);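 for Antagonist activity at mMOR, raw signal (single replicate values): BRET signal rises as cAMP falls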
# mDOR [6] = molecular target: T4, mDOR; assay: [125I]BNtxA radioligand competition binding, mouse DOR; details: mean ± SEM, n = 3; [125I]BNtxA; read-out: Ki ± SEM mDOR
compound,measurement,setting,value
"CC[C@@H]1CN2CC[C@@]3(O)C(=Nc4cc(F)cc(OC)c43)[C@@H]2C[C@@H]1/C(=C\OC)C(=O)OC [11-F-7OH (22), 11-Fluoro-7-hydroxymitragynine]",Agonist activity of 7OH analogs at hDOR,hDOR; Log[drug] (M) -6,34.2535 and 17.385 and 29.3707 and 32.2245 and 19.3851 and 24.4275 and 22.3041 and 14.4734 and 13.6453
same,Agonist activity of 7OH analogs at hDOR,hDOR; Log[drug] (M) -7,30.3483 and 21.8663 and 22.0325 and 12.2379 and 10.9328 and 13.3432 and 3.216 and 7.058 and 2.651
same,Agonist activity of 7OH analogs at hDOR,hDOR; Log[drug] (M) -8,2.89 and -16.6078 and 13.7181 and 1.455 and 8.915 and -8.089 and -4.58 and 2.715 and 18.3397
same,Agonist activity of 7OH analogs at hDOR,hDOR; Log[drug] (M) -9,8.34 and 5.8475 and -3.905 and -8.29 and 12.1949 and 6.438 and 2.013 and 5.417
same,Agonist activity of 7OH analogs at hDOR,hDOR; Log[drug] (M) -10,4.091 and -4.63 and 8.526 and 11.2871 and -1.147 and 9.891 and 2.3909 and 3.977 and 19.4184
same,Agonist activity of 7OH analogs at hDOR,hDOR; Log[drug] (M) -11,-7.5527 and 10.3457 and 6.839 and 6.552 and 7.529 and 1.024 and 18.8483 and 4.15 and -0.7846
same,Agonist activity of 7OH analogs at hDOR,hDOR; Log[drug] (M) -13,-0.5197 and 3.103 and 0.8755 and 5.994 and 5.535 and -9.529 and 9.805 and -0.2765
same,EC50,"hDOR; hDOR cAMP BRET, read-out: EC50",151 nM
same,Emax,hDOR; read-out: Emax,26%
same,Ki,mMOR [1],13.7 ± 1 nM
same,Emax,hMOR [2],< 10%
same,Agonist activity of 7OH analogs at rKOR,rKOR; Log [drug](M) -5,22.082 and 29.1799 and 24.9804 and 9.107 and 13.0188 and 13.182 and 6.083 and 2.973 and 4.112
same,Agonist activity of 7OH analogs at rKOR,rKOR; Log [drug](M) -6,13.2987 and 25.9578 and 3.4416 and 5.534 and 11.6761 and -0.5648 and 7.283 and 13.1071 and 4.997
same,Agonist activity of 7OH analogs at rKOR,rKOR; Log [drug](M) -7,18.031 and 31.9599 and 33.0367 and -2.212 and 3.5973 and -1.385 and 1.635 and 2.31 and 9.2799
same,Agonist activity of 7OH analogs at rKOR,rKOR; Log [drug](M) -8,5.787 and -5.909 and 29.0355 and 11.9094 and 9.551 and -12.1962 and 10.3961 and -3.525 and 1.154
same,Agonist activity of 7OH analogs at rKOR,rKOR; Log [drug](M) -9,2.374 and 3.557 and 1.503 and 17.2927 and 4.288 and -5.051 and 9.998 and -1.969 and -2.384
same,Agonist activity of 7OH analogs at rKOR,rKOR; Log [drug](M) -10,1.539 and 1.5713 and -3.1102 and 5.6014 and 10.9469 and 10.7639 and 2.853 and 4.901 and 1.67
same,Agonist activity of 7OH analogs at rKOR,rKOR; Log [drug](M) -11,-1.844 and 21.6085 and 6.867 and 10.1299 and 11.9047 and -4.025 and 6.309 and -3.657 and -2.652
same,Agonist activity of 7OH analogs at rKOR,rKOR; Log [drug](M) -13,18.2754 and 7.8104 and 16.2642 and 12.0322 and 1.984 and 9.1095 and -1.886 and 4.583 and -1.369
same,Agonist activity of 7OH analogs at mDOR,mDOR [3]; Log[drug] (M) -5,47.1654 and 47.1068 and 50.635 and 37.9412 and 42.0474 and 46.3733 and 28.2147 and 32.1025 and 39.5821
same,Agonist activity of 7OH analogs at mDOR,mDOR [3]; Log[drug] (M) -6,47.099 and 41.9872 and 38.3786 and 51.107 and 48.5979 and 35.3577 and 31.3142 and 12.8186 and 22.449
same,Agonist activity of 7OH analogs at mDOR,mDOR [3]; Log[drug] (M) -7,30.1688 and 32.9372 and 28.2956 and 32.0377 and 31.8373 and 22.4143 and 6.1677 and 13.5479 and 12.0733
same,Agonist activity of 7OH analogs at mDOR,mDOR [3]; Log[drug] (M) -8,13.6765 and -5.445 and -5.108 and 13.4452 and 4.719 and 1.33 and -3.9215 and 5.792
same,Agonist activity of 7OH analogs at mDOR,mDOR [3]; Log[drug] (M) -9,-4.727 and 10.4426 and 11.2028 and 10.7963 and -1.115 and -6.036 and 3.188 and 1.136 and -3.325
same,Agonist activity of 7OH analogs at mDOR,mDOR [3]; Log[drug] (M) -10,-4.225 and 3.531 and 0.6939 and 1.589 and -3.887 and 2.298 and 4.3674 and 7.155 and 10.722
same,Agonist activity of 7OH analogs at mDOR,mDOR [3]; Log[drug] (M) -11,12.0117 and 1.607 and 13.3008 and 5.9086 and 13.4698 and 3.259 and 9.679 and 6.216 and 9.4253
same,Agonist activity of 7OH analogs at mDOR,mDOR [3]; Log[drug] (M) -13,-0.8332 and 15.6965 and -5.824 and 1.284 and 2.644 and 6.574 and -5.56 and 1.8034 and 3.757
same,EC50,"mDOR [3]; mDOR cAMP BRET, read-out: EC50",102 nM
same,Emax,mDOR [3]; read-out: Emax,41%
same,EC50,hMOR [4],29.4 nM
same,Emax,hMOR [4],57%
same,cAMP %,hMOR [4]; Log[drug] (M) -5,51.264% and 45.9513% and 58.1795% and 79.6476% and 68.1188% and 65.3013% and 52.2398% and 64.2986% and 49.6622%
same,cAMP %,hMOR [4]; Log[drug] (M) -6,56.7369% and 57.602% and 54.9333% and 67.8605% and 67.5648% and 53.8544% and 46.4412% and 33.3921% and 44.9213%
same,cAMP %,hMOR [4]; Log[drug] (M) -7,48.1791% and 37.8893% and 39.1827% and 53.5374% and 50.3292% and 51.3541% and 36.9409% and 28.5036% and 44.2511%
same,cAMP %,hMOR [4]; Log[drug] (M) -8,15.2392% and 22.4344% and 23.7656% and 25.1778% and 17.6434% and 19.3494% and 5.0692% and 13.2412% and 14.3735%
same,cAMP %,hMOR [4]; Log[drug] (M) -9,4.113% and -7.3719% and 5.178% and 7.448% and -11.6959% and 4.5476% and -1.276% and -3.182% and 19.3939%
same,cAMP %,hMOR [4]; Log[drug] (M) -10,2.241% and -1.74% and -0.501% and 4.727% and -5.3691% and 0.6426% and 5.237% and 2.017% and 7.517%
same,cAMP %,hMOR [4]; Log[drug] (M) -11,9.244% and 1.716% and -4.082% and 4.12% and 6.65% and 8.68% and 7.357% and 0.1804% and -7.538%
same,cAMP %,"hMOR [4]; Log[drug] (M) -13, cAMP inhibition as % of DAMGO",3.279% and -3.532% and 2.642% and -0.9485% and 1.819% and 3.865% and 2.979% and -0.05442% and 0.9166%
same,Ki,mKOR,21 ± 3.2 nM
same,IC50,mMOR [5],260 nM
same,"Antagonist activity at mMOR, raw signal (single replicate values)",mMOR [5]; Log[drug] (M) -5,0.03322 and 0.03306 and 0.04505 and 0.03409 and 0.04171 and 0.03584 and 0.0591 and 0.05619 and 0.05325
same,"Antagonist activity at mMOR, raw signal (single replicate values)",mMOR [5]; Log[drug] (M) -6,0.06086 and 0.0551 and 0.06302 and 0.07276 and 0.06512 and 0.0766 and 0.06642 and 0.06116 and 0.08827
same,"Antagonist activity at mMOR, raw signal (single replicate values)",mMOR [5]; Log[drug] (M) -7,0.1571 and 0.1681 and 0.1534 and 0.1529 and 0.1704 and 0.1581 and 0.1507 and 0.1426 and 0.1477
same,"Antagonist activity at mMOR, raw signal (single replicate values)",mMOR [5]; Log[drug] (M) -8,0.2123 and 0.2016 and 0.2091 and 0.1893 and 0.2024 and 0.2047 and 0.1631 and 0.1656 and 0.156
same,"Antagonist activity at mMOR, raw signal (single replicate values)",mMOR [5]; Log[drug] (M) -9,0.2046 and 0.2165 and 0.2136 and 0.191 and 0.2101 and 0.1873 and 0.1659 and 0.1752 and 0.1707
same,"Antagonist activity at mMOR, raw signal (single replicate values)",mMOR [5]; Log[drug] (M) -10,0.2086 and 0.2076 and 0.2154 and 0.2091 and 0.201 and 0.211 and 0.1814 and 0.1819 and 0.178
same,"Antagonist activity at mMOR, raw signal (single replicate values)",mMOR [5]; Log[drug] (M) -11,0.2091 and 0.1929 and 0.2264 and 0.2001 and 0.2059 and 0.2094 and 0.1761 and 0.1779 and 0.1909
same,Ki,mDOR [6],35.8 ± 2 nM
